Values of other authors as cited in PubChem BioAssay AID1259409 (Chemical Carcinogenesis Research Information System (CCRIS), 2018).

Test system: rodent chemically induced tumor inhibition, incidence and multiplicity
Assay: CCRIS tumor inhibitor studies
Conditions: Route [Inhibitor]: ORAL, Promoter: NONE USED

CC1=C(/C=C/C(C)=C/C=C/C(C)=C/C(=O)NCCO)C(C)(C)CCC1
tumour outcome (control, treated, inhibition, significance) (Carcinogen: N-(4-(5-NITRO-2-FURYL)-2-THIAZOLYL)FORMAMIDE, 24554-26-5, Dose [Inhibitor]: 686 MG/KG/D IN DIET FOR 39 WK STARTING 1 WK POST CARCINOGEN TREATMENT (STUDY DURATION: 50 WK), Species: RAT, Strain/Sex: F344/FEMALE, Target Tissue: Type of Lesion: URINARY BLADDER: CARCINOMA, Dose [Carcinogen]: 2 G/KG/D IN DIET FOR 10 WK): 105/200 (53%), 49/100 (49%), 8%, p<0.5657
tumour outcome (control, treated, inhibition, significance) (Carcinogen: N-(4-(5-NITRO-2-FURYL)-2-THIAZOLYL)FORMAMIDE, 24554-26-5, Dose [Inhibitor]: 686 MG/KG/D IN DIET FOR 39 WK STARTING 1 WK POST CARCINOGEN TREATMENT (STUDY DURATION: 50 WK), Species: RAT, Strain/Sex: F344/FEMALE, Target Tissue: Type of Lesion: URINARY BLADDER: PAPILLOMA, Dose [Carcinogen]: 2 G/KG/D IN DIET FOR 10 WK): 15/200 (7.5%), 17/100 (17%), -127%, p<0.012
tumour outcome (control, treated, inhibition, significance) (Carcinogen: N-BUTYL-N-(4-HYDROXYBUTYL)NITROSAMINE, 3817-11-6, Dose [Inhibitor]: 0.5 MMOL/KG DIET DAILY FOR 16 WK STARTING 7 D AFTER FINAL CARCINOGEN DOSE (STUDY DURATION: 6 MO), Species: MOUSE, Strain/Sex: B6D2F1/MALE, Target Tissue: Type of Lesion: URINARY BLADDER: CARCINOMA, Dose [Carcinogen]: 5 OR 10 MG 2/WK FOR 9 WK): 36/97 (37%), 22/75 (29%), 22%, not significant
tumour outcome (control, treated, inhibition, significance) (Carcinogen: N-BUTYL-N-(4-HYDROXYBUTYL)NITROSAMINE, 3817-11-6, Dose [Inhibitor]: 1 MMOL/KG DIET DAILY FOR 16 WK STARTING 7 D AFTER FINAL CARCINOGEN DOSE (STUDY DURATION: 6 MO), Species: MOUSE, Strain/Sex: B6D2F1/MALE, Target Tissue: Type of Lesion: URINARY BLADDER: CARCINOMA, Dose [Carcinogen]: 5 OR 10 MG 2/WK FOR 9 WK): 36/97 (37%), 17/77 (22%), 41%, p<0.025
tumour outcome (control, treated, inhibition, significance) (Carcinogen: N-BUTYL-N-(4-HYDROXYBUTYL)NITROSAMINE, 3817-11-6, Dose [Inhibitor]: 1 MMOL/KG DIET DAILY FOR 108 D STARTING ONE WK AFTER THE FINAL CARCINOGEN DOSE (STUDY DURATION: 171 D), Species: MOUSE, Strain/Sex: BDF1/MALE, Target Tissue: Type of Lesion: URINARY BLADDER: TRANSITIONAL CELL CARCINOMA, Dose [Carcinogen]: 5 MG 2/WK FOR 9 WK): 31/55 (56%), 19/55 (35%), 38%, p<0.05
tumour outcome (control, treated, inhibition, significance) (Carcinogen: N-BUTYL-N-(4-HYDROXYBUTYL)NITROSAMINE, 3817-11-6, Dose [Inhibitor]: 1 MMOL/KG DIET DAILY FOR 159 D STARTING ONE WK AFTER THE FINAL CARCINOGEN DOSE (STUDY DURATION: 216 D), Species: MOUSE, Strain/Sex: BDF1/MALE, Target Tissue: Type of Lesion: URINARY BLADDER: TRANSITIONAL CELL CARCINOMA, Dose [Carcinogen]: 7.5 MG 1/WK FOR 8 WK): 29/98 (30%), 14/95 (15%), 50%, p<0.05
tumour outcome (control, treated, inhibition, significance) (Carcinogen: N-BUTYL-N-(4-HYDROXYBUTYL)NITROSAMINE, 3817-11-6, Dose [Inhibitor]: 1.0 MMOL/KG/D IN DIET FOR 108 D STARTING 1 WK POST CARCINOGEN TREATMENT (STUDY DURATION: 171 D), Species: MOUSE, Strain/Sex: DBF1/MALE, Target Tissue: Type of Lesion: URINARY BLADDER: TRANSITIONAL CELL CARCINOMA, Dose [Carcinogen]: 5 MG 2/WK FOR 9 WK): 31/55 (56%), 19/55 (35%), 38%, p<0.05
tumour outcome (control, treated, inhibition, significance) (Carcinogen: N-BUTYL-N-(4-HYDROXYBUTYL)NITROSAMINE, 3817-11-6, Dose [Inhibitor]: 1.0 MMOL/KG/D IN DIET FOR 159 D STARTING 1 WK POST CARCINOGEN TREATMENT (STUDY DURATION: 216 D), Species: MOUSE, Strain/Sex: DBF1/MALE, Target Tissue: Type of Lesion: URINARY BLADDER: TRANSITIONAL CELL CARCINOMA, Dose [Carcinogen]: 7.5 MG 1/WK FOR 8 WK): 29/98 (30%), 14/95 (15%), 50%, p<0.05
tumour outcome (control, treated, inhibition, significance) (Carcinogen: N-BUTYL-N-(4-HYDROXYBUTYL)NITROSAMINE, 3817-11-6, Dose [Inhibitor]: 2 MMOL/KG DIET DAILY FOR 17 WK STARTING 7 D AFTER FINAL CARCINOGEN DOSE (STUDY DURATION: 6 MO), Species: RAT, Strain/Sex: F344/MALE, Target Tissue: Type of Lesion: URINARY BLADDER: TRANSITIONAL CELL CARCINOMA, Dose [Carcinogen]: 200 MG 2/WK FOR 8 WK): 55/60 (92%), 19/30 (63%), 32%, p<0.01
tumour outcome (control, treated, inhibition, significance) (Carcinogen: N-BUTYL-N-(4-HYDROXYBUTYL)NITROSAMINE, 3817-11-6, Dose [Inhibitor]: 2 MMOL/KG DIET DAILY FOR 19 WK STARTING 7 D AFTER FINAL CARCINOGEN DOSE (STUDY DURATION: 6 MO), Species: RAT, Strain/Sex: F344/FEMALE, Target Tissue: Type of Lesion: URINARY BLADDER: TRANSITIONAL CELL CARCINOMA, Dose [Carcinogen]: 150 MG 2/WK FOR 6 WK): 28/80 (35%), 5/40 (12%), 66%, p<0.01
tumour outcome (control, treated, inhibition, significance) (Carcinogen: N-METHYL-N-NITROSOUREA, 684-93-5, Dose [Inhibitor]: 2 MMOL/KG DIET DAILY STARTING 12 D AFTER CARCINOGEN TREATMENT THROUGH ABOUT 8 MO AFTER CARCINOGEN DOSE (STUDY DURATION:, Species: RAT, Strain/Sex: F344/MALE, Target Tissue: Type of Lesion: COLON: ADENOCARCINOMA, Dose [Carcinogen]: 2.5 MG 1/WK FOR 2 WK): 5/39 (13%), 5/30 (17%), -31%, not significant
